The values that follow come from publication PMC5587309, “Involvement of arginine 878 together with Ca^2+ in mouse aminopeptidase A substrate specificity for N-terminal acidic amino-acid residues” (PLoS ONE, 2017).

Positions count from the first letter of the chain named.

Type in all cases: biochemical
The target of assay [1] is T1, wild-type mAPA (Mus musculus, UniProt P16406).
T1 construct: made in house; host or cells: stably transfected CHO-K1 cells
T1 sequence (P16406 1-945): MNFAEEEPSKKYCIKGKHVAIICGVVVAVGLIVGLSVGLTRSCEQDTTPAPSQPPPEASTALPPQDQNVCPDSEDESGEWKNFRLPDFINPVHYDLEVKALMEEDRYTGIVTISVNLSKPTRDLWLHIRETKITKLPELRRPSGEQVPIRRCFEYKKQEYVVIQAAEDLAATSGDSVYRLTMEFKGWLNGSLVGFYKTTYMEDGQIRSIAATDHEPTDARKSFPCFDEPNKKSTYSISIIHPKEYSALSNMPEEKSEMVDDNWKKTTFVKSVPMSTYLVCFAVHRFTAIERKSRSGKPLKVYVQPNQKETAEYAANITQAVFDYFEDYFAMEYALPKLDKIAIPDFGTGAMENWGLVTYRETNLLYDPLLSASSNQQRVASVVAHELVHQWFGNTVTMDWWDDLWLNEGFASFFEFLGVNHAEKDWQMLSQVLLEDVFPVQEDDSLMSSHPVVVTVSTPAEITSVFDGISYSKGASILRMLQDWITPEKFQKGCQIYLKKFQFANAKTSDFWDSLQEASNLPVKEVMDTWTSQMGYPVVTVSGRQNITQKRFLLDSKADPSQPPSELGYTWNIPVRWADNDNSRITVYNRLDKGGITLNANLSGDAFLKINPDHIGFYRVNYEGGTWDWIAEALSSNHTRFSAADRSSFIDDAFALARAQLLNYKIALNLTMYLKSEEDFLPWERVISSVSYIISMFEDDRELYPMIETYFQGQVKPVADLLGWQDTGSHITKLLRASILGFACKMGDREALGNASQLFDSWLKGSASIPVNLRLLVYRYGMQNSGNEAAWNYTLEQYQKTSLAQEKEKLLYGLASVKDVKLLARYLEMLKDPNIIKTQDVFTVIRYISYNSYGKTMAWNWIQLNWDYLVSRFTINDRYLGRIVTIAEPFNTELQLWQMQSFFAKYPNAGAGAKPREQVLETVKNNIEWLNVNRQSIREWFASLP
Briefly: Ca2+ activation profile of GluNA hydrolysis by wild-type His-mAPA. The following applies: 0.5 mM GluNA. The procedure:
Enzyme assays were carried out for wild-type and mutated […] 50 mM Tris-HCl buffer, pH 7.4, with or without 4 mM CaCl2, by monitoring the rate of hydrolysis of GluNA, as previously described. The sensitivity to Ca^2+ of purified wild-type and mutated His-mAPA was determinated by incubating 0.5 mM GluNA with 0 to 4 mM CaCl2 in a final volume of 100 μl of 50 mM Tris-HCl buffer, pH 7.4. All the assays were performed in black 96-well plates (solid black 96-well flat-bottomed non-treated plates with no lid; Corning Costar). All of the enzymatic studies were performed such that substrate hydrolysis rates were maintained below 10% (initial rate conditions). […] Fluorescence signals were monitored by counting photons with a spectrophotometer (Fusion universal microplate analyser; Packard) equipped with a temperature control device and a plate shaker. […] Fig 3 Effects of the divalent cation Ca^2+ on recombinant wild-type and mutated mouse APAs enzymatic activities. Purified mAPAs (2 μg) were incubated at 37°C for 30 min with 0.5 mM GluNA with various concentrations of CaCl2 in a final volume of 100 μl of 50 mM Tris-HCl buffer (pH7.4). (A), APA enzymatic activities expressed as a percentage of maximal hydrolysis velocity obtained with 4 mM Ca^2+ for each purification vs log of Ca^2+ concentration. (B), Effect of increasing Ca^2+ concentration on APA enzymatic activities.

For assay [2], the target named is T1, wild-type mAPA. Briefly: Inhibition of GluNA hydrolysis by purified recombinant wild-type His-mAPA. The procedure: (§1) Enzyme assays were carried out for wild-type and mutated His-mAPAs in 50 mM Tris-HCl buffer, pH 7.4, with or without 4 mM CaCl2, by monitoring the rate of hydrolysis of GluNA, as previously described. The sensitivity to Ca^2+ of purified wild-type and mutated His-mAPA was determinated by incubating 0.5 mM GluNA with 0 to 4 mM CaCl2 in a final volume of 100 μl of 50 mM Tris-HCl buffer, pH 7.4. All the assays were performed in black 96-well plates (solid black 96-well flat-bottomed non-treated plates with no lid; Corning Costar). All of the enzymatic studies were performed such that substrate hydrolysis rates were maintained below 10% (initial rate conditions). The kinetic curves were monitored by following the increase in fluorescence at 460 nm (lex = 330 nm), induced by the release of the β-naphthylamide fluorogenic part of the substrate by APA. Fluorescence signals were monitored by counting photons with a spectrophotometer (Fusion universal microplate analyser; Packard) equipped with a temperature control device and a plate shaker. The kinetic parameters (Km and kcat) were determined from Michaelis-Menten plots, using GraphPad Prism 4 software (GraphPad) with a final concentration of substrate (GluNA) from 0.005 to 5 mM with or without 4 mM Ca^2+. For evaluation of the substrate specificity of APA with or without 4 mM Ca^2+, the rate of hydrolysis of […] additional substrates, α-L-aspartate-β-naphthylamide (AspNA), α-L-alanine-β-naphthylamide (AlaNA) and basic α-L-lysine-β-naphthylamide (LysNA), was determined under the same experimental conditions as described for GluNA. The sensitivity of wild-type and mutated His-mAPAs to inhibition by [(3S)-3-amino-4-sulfanyl-butane-1-sulfonic acid] (EC33), glutamate-thiol (GluSH), glutamate-phosphonic-acid (GluPO3H2), methionine-thiol (MetSH) and lysine-thiol (LysSH) was determined by establishing dose-dependent inhibition curves for a final GluNA concentration of 0.5 mM in the presence or absence of 4 mM CaCl2. These compounds being linear competitive inhibitors, their Ki were calculated from the formula Ki = IC50/ (1+ [GluNA]/Km).

The target of another assay is T2, R878K mutated mAPA (Mus musculus, UniProt P16406, R878K).
T2 construct: made in house; host or cells: stably transfected CHO-K1 cells
T2 sequence (P16406 1-945 R878K): T1 sequence (P16406 1-945) with R878K
Briefly: Inhibition of GluNA hydrolysis by purified recombinant R878K His-mAPA. As to the method: as §1

A further assay has as its target T3, R878A mutated mAPA (Mus musculus, UniProt P16406, R878A).
T3 construct: made in house; host or cells: stably transfected CHO-K1 cells
T3 sequence (P16406 1-945 R878A): T1 sequence (P16406 1-945) with R878A
Briefly: Inhibition of GluNA hydrolysis by purified recombinant R878A His-mAPA. As to the method: as §1

In general, EC50 refers to the concentration giving half of the maximal effect. Take `[Ca+2].[Cl-].[Cl-]` [Ca^2+]: the EC50 on wild-type mAPA [1] (0 to 4 mM CaCl2, read-out: EC50 of activation of enzymatic activity) stood at 22 ± 5 µM. Also, the “increase of enzymatic activity” value on wild-type mAPA [1] (Ca2+ concentration raised from 0 to 4 mM) was found to be 7 fold.
The term Ki denotes the dissociation constant of the complex between target and ligand, obtained from inhibition or displacement. Consider `N[C@@H](CCC(=O)O)P(=O)(O)O` [GluPO3H2, (4R)-4-amino-4-phosphonobutanoic acid], for which the Ki is 0.074 ± 0.0077 µM at wild-type mAPA [2], 0.619 ± 0.021 µM on R878K mutated mAPA and 6.5 ± 0.24 µM at R878A mutated mAPA. The “times less efficiently inhibited than wild-type” value at R878K mutated mAPA (R878K mAPA, presence of Ca2+) is reported as 8 times; on R878A mutated mAPA (R878A mAPA, presence of Ca2+), 87 times.
